Laboratory results: patent US12624350B2, “High-throughput single-nuclei and single-cell libraries and methods of making and of using” (ILLUMINA, INC., priority 2019, dated 2026)

Test system: HEK293T cells
Assay: flavopiridol time course, sci-RNA-seq with hash ladder
Format: cell-based, human
Settings: 300 nM, longest exposure times
Procedure: For the flavopiridol time course experiment, HEK293T cells were seeded onto a 6-well culture plate at a density of 4×10^5 cells per well. For the HDAC inhibitor time course and HDAC inhibitor and Dexamethasone co-treatment experiments, A549 cells were seeded onto a 96-well culture plate at a density of 2.5×10^4 cells per well.
The cells were grown for 24 hours after they were seeded onto the cell culture plates. For the flavopiridol time course experiment, 0.9 uL of 1 mM flavopiridol was added to each 6 well to attain final concentration of 300 nM. […]
The capture of hash ladder by nuclei is determined by factors including, but not limited to, sample processing and sequencing depth. […] We empirically determined that the ladder should be constructed so that around 6 million hash molecules are captured per nuclei (assuming that each nucleus takes up equal amount of hash molecules in the solution) to obtain a median hash UMI count of 1,000-5,000. […]
For the harvest of cells, media was removed and cells were washed with DPBS and dissociated off the plate using trypLE. […] Cells were then counted with a hemocytometer using 0.4% Trypan Blue. […]
Isolated and hashed nuclei were then permeabilized in permeabilization buffer (0.25% Triton-X in NSB) for 3 minutes on ice and then spun down. […] Cell counts were obtained by staining nuclei with 0.4% Trypan Blue (Sigma-Aldrich) and counted using a hemocytometer. […]

CN1CC[C@H](c2c(O)cc(O)c3c(=O)cc(-c4ccccc4Cl)oc23)[C@H](O)C1 [flavopiridol]
RNA recovery per-cell (total RNA UMI counts): greatest reduction in RNA recovery per-cell
